What was measured:
[1] = molecular target: T1, histone deacetylase 6 (HDAC6) (Homo sapiens, UniProt Q9UBN7); test: Detection of enzyme viability of histone deacetylase 6 (fluorogenic substrate deacetylation); assay type: biochemical; conditions: 0.35 ng/μL HDAC 6, 20 μM substrate, 37° C.
T1 construct: purchased BPS Bioscience 50076
T1 sequence (Q9UBN7 1-1215): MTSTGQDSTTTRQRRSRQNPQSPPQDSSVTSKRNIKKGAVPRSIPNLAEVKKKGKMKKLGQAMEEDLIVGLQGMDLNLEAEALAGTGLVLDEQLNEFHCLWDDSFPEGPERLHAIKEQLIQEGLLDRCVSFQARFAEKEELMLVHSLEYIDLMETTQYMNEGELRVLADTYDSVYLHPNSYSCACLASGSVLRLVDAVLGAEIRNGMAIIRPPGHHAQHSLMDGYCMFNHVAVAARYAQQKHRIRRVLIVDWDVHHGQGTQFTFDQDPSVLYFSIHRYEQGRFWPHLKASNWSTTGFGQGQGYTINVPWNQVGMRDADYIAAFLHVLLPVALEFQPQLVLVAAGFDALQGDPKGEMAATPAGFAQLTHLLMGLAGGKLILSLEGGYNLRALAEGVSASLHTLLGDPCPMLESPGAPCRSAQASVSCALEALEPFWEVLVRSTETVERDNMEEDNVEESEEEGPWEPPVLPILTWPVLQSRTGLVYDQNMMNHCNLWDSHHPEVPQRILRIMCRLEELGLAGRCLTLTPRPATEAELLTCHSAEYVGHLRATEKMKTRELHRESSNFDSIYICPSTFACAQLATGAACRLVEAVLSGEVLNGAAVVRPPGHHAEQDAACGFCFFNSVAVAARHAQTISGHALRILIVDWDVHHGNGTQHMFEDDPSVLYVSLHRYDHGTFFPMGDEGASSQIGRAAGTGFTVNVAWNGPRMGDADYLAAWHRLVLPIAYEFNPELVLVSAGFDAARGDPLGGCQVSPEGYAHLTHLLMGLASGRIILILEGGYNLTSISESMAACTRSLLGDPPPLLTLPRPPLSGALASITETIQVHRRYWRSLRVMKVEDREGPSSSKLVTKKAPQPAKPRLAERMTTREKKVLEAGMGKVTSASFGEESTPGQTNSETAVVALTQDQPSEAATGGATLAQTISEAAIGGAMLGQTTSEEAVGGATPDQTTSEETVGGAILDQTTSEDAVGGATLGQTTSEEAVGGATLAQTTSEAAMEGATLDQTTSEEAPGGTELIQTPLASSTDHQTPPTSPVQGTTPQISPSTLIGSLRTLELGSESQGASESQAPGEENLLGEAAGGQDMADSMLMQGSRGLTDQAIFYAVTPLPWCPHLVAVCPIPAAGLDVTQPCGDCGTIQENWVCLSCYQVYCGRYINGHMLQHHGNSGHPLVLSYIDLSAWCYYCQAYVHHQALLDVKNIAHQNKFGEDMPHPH
Source text: HDAC inhibitory viabilities of the compounds in the present invention are detected in detection of substrate deacetylation.
A: Detection of enzyme viability of histone deacetylase 6 (#50076, BPS Bioscience):
Acetyl of HDAC 6 on a substrate is removed, so that the substrate is activated and can be affected by a subsequently added developing solution, and fluorophore is released. The size of a fluorescence signal reflects the viability of the HDAC 6. An IC50 detection method of the enzyme is disclosed in Chuping Xu, Elisabetta Soragni improved Histone Deacetylase Inhibitors as Therapeutics for the Neurdegenerative DiseaseEriedreich's Ataxia: A New Synthetic Route. A total reaction system (100 μL/well) contains 0.35 ng/μL of HDAC 6, 20 μM of substrate and compounds of different concentrations. The fluorescence signal is measured within 30 minutes after incubation at a temperature of 37° C., inhibitory effects of the compounds are determined from the obtained data and mapped with the compound concentrations to obtain a concentration response curve, and the IC50 value is fitted according to a four-parameter model.
The compounds 1-19 prepared in the embodiments are subjected to detection of enzyme viability of histone deacetylase 6 (i.e., HDAC6) according to the method above. Test results are shown in Table 2, wherein the measured IC50 values of the compounds are classified as specified, as shown in Table 2: […]

Hep3B cells = test: Determination of cell growth inhibition, CCK-8, Hep3B; assay type: cell-based; conditions: Homo sapiens, Hep3B hepatoma cells, 72 hours, highest measured IC50 of single or multiple operations
Source text: (§1) Test example 2 Cell determination-determination of cell growth inhibition Materials and reagents HepG2 cell strains, Hep3B cell strains, Huh7 cell strains and Li7 cell strains are purchased from Shanghai Institutes for Biological Sciences of Chinese Academy of Sciences; DMEM high glucose media and MEM media are purchased from Hyclone; fetal calf serum is purchased from Gibco Company; trypsin is purchased from Invitrogen Shanghai; CCK-8 kits are purchased from Beyotime Institute of Biotechnology; and other consumables such as cell-culture dishes and the like are purchased from Corning China. […]
(§2) comprising the steps: digesting HepG2 cells, Hep3B Huh7 cells and Li7 cells in logarithmic phases by using the trypsin; after counting the cells by taking uniform cell suspension, adjusting cell density to 1500 cells/pore by using a culture medium containing 10% of serum, and re-inoculating into a 96-pore cell culture plate, wherein the culture volume is 200 μL; incubating in a 5% CO2 incubator at a temperature of 37° C.; and culturing for 24 hours for experiments. […]
(§3) comprising the steps: taking the cells cultured for 24 hours from the incubator, sucking culture solution in the pore plate, adding 200 μL of compound solution prepared by using a culture medium containing 10% of the fetal calf serum into each pore, enabling five pores of each concentration to be parallel, setting DMSO at negative control, and incubating in the 5% CO2 incubator at a temperature of 37° C. for 72 hours for performing CCK-8 detection. […]
(§4) comprising the steps: taking a serum-free medium and a CCK-8 solution, and preparing a CCK-8 working solution according to a ratio of 10:1 (the process needs to be protected from light); taking the cells cultured for 72 hours from the incubator, sucking culture solution in the pore plate, adding 120 μL of the CCK-8 working solution into each pore, adding 120 μL of the CCK-8 working solution into a cell-free pore plate to serve as blank control, and incubating in the 5% CO2 incubator at a temperature of 37° C. for one hour (the process needs to be protected from light ); and […]
(§5) taking the pore plate from the incubator, sucking 100 μL of solution from each pore into a new 96-pore plate, and reading absorbancy at 450 nm (the process needs to he protected from light).
(§6) Tx: absorbancy measured in CCK-8 within 72 hours after compound effect
(§7) C: absorbancy measured m CCK-8 within 72 hours after culturing in negative control pores B: absorbancy measured CCK-8 in blank control pores
(§8) The compounds 1-19 prepared in the embodiments are operated in the above determination, and test results are shown in Table 3, wherein the highest measured IC50 values of the various compounds during single or multiple operations are classified as specified, as shown in Table 3: […]

Li7 cells = test: Determination of cell growth inhibition, CCK-8, Li-7; assay type: cell-based; conditions: Li-7 hepatoma cells, 72 hours, highest measured IC50 of single or multiple operations
Source text: as §1, §2, §3, §4, §5, §6, §7, §8

Huh7 cells = test: Determination of cell growth inhibition, CCK-8, Huh-7; assay type: cell-based; conditions: Homo sapiens, Huh-7 hepatoma cells, 72 hours, highest measured IC50 of single or multiple operations
Source text: as §1, §2, §3, §4, §5, §6, §7, §8

HepG2 cells = test: Determination of cell growth inhibition, CCK-8, HepG2; assay type: cell-based; conditions: Homo sapiens, HepG2 hepatoma cells, 72 hours, highest measured IC50 of single or multiple operations
Source text: as §1, §2, §3, §4, §5, §6, §7, §8

| IC50 (Hep3B cells) [µM] | IC50 (Huh7 cells) [µM] | IC50 (HepG2 cells) [µM] | SMILES | IC50 [1] [µM] | IC50 (Li7 cells) [µM] |
| --- | --- | --- | --- | --- | --- |
| > 10 | > 10 | > 10 | N#Cc1ccc(S(=O)(=O)N2CC=C(C(=O)NO)C2)cc1 [Compound 1, N-hydroxy-1-((4-benzene-cyano)sulfonyl) 2,5-dihydro-1H-pyrrole-3-formamide] | 0.1 to 0.3 | > 10 |
| > 10 | > 10 | > 10 | O=C(NO)C1=CCN(S(=O)(=O)c2ccc(C(=O)O)cc2)C1 [Compound 7] | < 0.1 | > 10 |
| > 10 | > 10 | > 10 | CNC(=O)c1ccc(S(=O)(=O)N2CC=C(C(=O)NO)C2)cc1 [Compound 9, N-hydroxy-1-((4-(methylaminecarbonyl)phenyl)sulfonyl) 2,5-dihydro-1H-pyrrole-3-formamide] | < 0.1 | > 10 |
| > 10 | > 10 | > 10 | CC(=O)Nc1ccc(S(=O)(=O)N2CC=C(C(=O)NO)C2)cc1 [Compound 10, N-hydroxy-1-((4-acetamido-phenyl)sulfonyl) 2,5-dihydro-1H-pyrrole-3-formamide] | < 0.1 | > 10 |
| > 10 | > 10 | > 10 | O=C(NO)C1=CCN(S(=O)(=O)c2ccc(F)cc2)C1 [Compound 11, N-hydroxy-1-((4-fluoro-phenyl)sulfonyl) 2,5-dihydro-1H-pyrrole-3-formamide] | < 0.1 | > 10 |
| > 10 | > 10 | < 10 | O=C(NO)C1=CCN(S(=O)(=O)c2cccc(F)c2)C1 [Compound 12, N-hydroxy-1-((3-fluoro-phenyl)sulfonyl) 2,5-dihydro-1H-pyrrole-3-formamide] | < 0.1 | > 10 |
| < 10 | > 10 | < 10 | COc1ccc(S(=O)(=O)N2CC=C(C(=O)NO)C2)cc1 [Compound 13, N-hydroxy-1-((4-methoxy-phenyl)sulfonyl) 2,5-dihydro-1H-pyrrole-3-formamide] | < 0.1 | < 10 |
| < 10 | > 10 | < 10 | COc1cccc(S(=O)(=O)N2CC=C(C(=O)NO)C2)c1 [Compound 14, N-hydroxy-1-((3-methoxy-phenyl)sulfonyl) 2,5-dihydro-1H-pyrrole-3-formamide] | < 0.1 | < 10 |
| < 10 | > 10 | < 10 | Cc1ccc(S(=O)(=O)N2CC=C(C(=O)NO)C2)cc1 [Compound 15, N-hydroxy-1-((4-methylphenyl)sulfonyl)2,5-dihydro-1H-pyrrole-3-formamide] | < 0.1 | < 10 |
| > 10 | > 10 | < 10 | Cc1cccc(S(=O)(=O)N2CC=C(C(=O)NO)C2)c1 [Compound 16, N-hydroxy-1-((3-methylphenyl)sulfonyl)2,5-dihydro-1H-pyrrole-3-formamide] | < 0.1 | > 10 |
| > 10 | > 10 | > 10 | COc1ccc(S(=O)(=O)N2CC=C(C(=O)NO)C2)cc1OC [Compound 17, N-hydroxy-1-((3,4-dimethoxyphenyl)sulfonyl) 2,5-dihydro-1H-pyrrole-3-formamide] | 0.1 to 0.3 | > 10 |
| > 10 | > 10 | > 10 | Nc1ccccc1NC(=O)C1=CCN(S(=O)(=O)c2ccccc2)C1 [Compound 19, N-(2-aminophenyl)-1-(benzenesulfonyl)-2,5-dihydro-1H-pyrrole-3-formamide] | > 0.5 | > 10 |

| SMILES | IC50 (Hep3B cells) [µM] | IC50 (Huh7 cells) [µM] | IC50 (HepG2 cells) [µM] | IC50 [1] [µM] | IC50 (Li7 cells) [µM] |
| --- | --- | --- | --- | --- | --- |
| O=C(NO)C1=CCN(S(=O)(=O)c2ccc(C3=CCNCC3)cc2)C1 [Compound 18, N-hydroxy-1-((4-(1,2,3,6-tetrahydro-pyridine-4-yl)phenyl)sulfonyl) 2,5-dihydro-1H-pyrrole-3-formamide] | > 10 | > 10 | > 10 | 0.1 to 0.3 | > 10 |

From patent US10266489B2, “Pyrrolic amide compound and preparation method and application thereof” (HitGen LTD, priority 2014, dated 2019)
